Measured values from patent EP1600153A1, “Slow-release pharmaceutical composition allowing to monitor drug release” (Deutsches Krebsforschungszentrum Stiftung des öffentlichen …, priority 2004, dated 2005).

Tests used:
[1] = Subcutaneous liposome depot preparation in rats: amount of FLAMP at the site of injection by 19F-MRS in vivo; design: species or system Wistar rats
Experimental: 2 ml aqua bidest., 1,7 µl Magnevist™ and 200 mg Phospholipon™ 90H were added to a bottle for injection of Fludara™. The mixture was mixed by hand for 20 min. at room temperature. Then, the mixture was subjected to 6 cycles of vortexing for 2 min. and placing in a water bath at 64°C for 3 min.. Subsequently, the mixture was subjected to 6 cycles of holding in liquid nitrogen for 3 min. and placing in a water bath at 64°C for 6 min. Finally, the mixture was washed for four times with each of 10 ml phosphate buffer. After each washing step, the mixture was centrifuged for 15 min. at 10,000 x g. A colorless preparation having a consistency of a paste was obtained which was transferred to a syringe.
Adult male Wistar rats were bred in twos in isolators and received Altromin™ and water ad libitum. At day 1, in the morning rats were subcutaneously injected once with 1 ml of the pharmaceutical composition described in Example 1 into the right flank ("Luer"-canulla No.12 with screw thread). Injections and NMR-measurements were carried with rats which had been previously subjected to inhalation anesthesia (77% N2, 22% O2 and 1 - 1,2% Isofluran™) .
At day 1, in the morning (after the formulation had been injected) and in the afternoon, respectively, as well as at days 4, 13, 22, 29, 36 and 43 the following NMR-measurements were carried out: The amount of Fludarabin monophosphate (FLAMP) at the site of injection was determined by ^19F-MRS and the volume and the contrast intensity of the drug depot was measured by MRT.
A 1,5-T whole body tomograph(Magnetom Vision Plus, Siemens AG, Erlangen, Germany) was used for the NMR-measurements. For both, the ^19F-MRS and the ^1H-imaging a volume resonator which had been constructed by the DKFZ (resonance frequency: 63,6 MHz (^1H) , 59,9 MHz (^19F) with an inner diameter of 8.4 cm was used which served as transmitting- and receiving coil.
After the rats had been positioned (subcutaneous liposome depot in the middle of the resonator) the volume resonator was manually tuned to the ^1H resonance frequency. After "Shim" (optimization of field homogeneity) by use of the ^1H-tissue water resonance line and subsequent tuning of the coil to the ^19F resonance frequency the ^19F spectra were recorded. The reading sequence comprised a simple non-layer-specific pulsed excitation with subsequent recording of 1024 readings in 51.2 ms corresponding to the fast T2-decay of the FID. The recording period of TA = 33:21 min. resulted from a repetition time TR = 100 ms and a number of NEX = 20000 excitations.
In order to get a reference for the chemical shift and the signal intensity of FLAMP a 0.5 ml reference solution containing 400 mM NaF was applied to the middle of the underside of the volume resonator with the resonance of this solution being at about -40 ppm (with reference to TFA). The follow-up editing of the spectra was carried out by use of the software LUISE which is implemented to the tomograph. […] The relation of the integrals of the resonances of FLAMP to NaF served as a reference value for the individual readings. ^1H-imaging with high resolution was carried with a T1-weighted 3D-gradient-echo-method (3D-FLASH) with lipid saturation (parameters used for measurements: TR = 45 ms; TE = 11 ms; α = 30; FOV = 50 mm; matrix-size = 128 x 128; period of acquisition for the individual readings: 15,36 ms). Multiple transverse layer images of the liposome depots were recorded with layers having an actual thickness of 2, 1- and 0,4 mm, respectively. […]

[2] = Subcutaneous injection of FLAMP solution (control): 19F MRS in vivo at the site of injection; design: species or system rat
Experimental: Subcutaneous injection of 34 mcmol FLAMP, along with 0.5 mcmol Gd-DTPA, as a 1 ml-solution in an adult male rat, 19F MRS in vivo at the site of injection. Relative FLAMP signal (peak area of FLAMP / peak area of external NaF standard) versus time after injection.
(§1) A solution of the drug and the contrast agent was injected subcutaneously, followed by local MRS and MRI monitoring as in Example 2, in order to test whether either agent might be locally detectable even after release from the depot preparation. The injection volume (1 ml) and the amount of drug (FLAMP, 34 mcmoles) were the same as in Example 2 while the amount of contrast agent was doubled (Gd-DTPA, 0.5 mcmol).

[3] = course of plasma level corresponds to that after intravenous application; cited from earlier work
[4] = Subcutaneous injection of Gd-DTPA solution (control): 1H MR imaging at the site of injection; format: in vivo, rat
Experimental: Subcutaneous injection of 0.5 mcmol Gd-DTPA (along with 34 mcmol FLAMP), as a 1 ml-solution in an adult male rat (left flank). Transversal 1H MR images (slice thickness 2 mm) from the region of the injection, taken 85 min after injection. Images numbered in caudal-cranial direction.
as §1

| Compound | drug amounts injected still present at the site of injection ([1]; day 13 post injection, s.c. 1 ml liposome depot (Phospholipon, Fludara, Magnevist), 19F-NMR-spectroscopy) | drug amounts injected still present at the site of injection ([1]; end of the experiment (day 43, six weeks), s.c. liposome depot) | amounts of drug available for release, of the amounts initially injected ([1]; end of the period, about six weeks after subcutaneous injection of depot) | time at which amount of FLAMP at the site of injection started to decrease continuously ([1]; s.c. liposome depot, 19F-MRS) | amounts of drug available for release, of the amounts initially injected ([1]; start of the period, about one week after subcutaneous injection of depot) | 19F MRS signal from the drug at the site of injection ([2]; 8 min after s.c. injection of solution, 34 mcmoles FLAMP in 1 ml) | 19F MRS signal from the drug at the site of injection ([2]; after 24 hours, s.c. solution, 34 mcmoles FLAMP) | disappearance of MRS signals from the drug itself or indistinguishable metabolites ([2]; drug injected as a solution) | drop of 19F MRS signal from the drug ([2]; within 5 hours after s.c. injection of solution, 34 mcmoles FLAMP) | absorption after subcutaneous application [3] | contrast enhancement at the site of injection (1H-images, 24 adjacent 2 mm layers) ([4]; 85 min after s.c. injection of solution, 0.5 mcmol Gd-DTPA) | area of remaining contrast enhancement ([4]; 85 min after s.c. injection of solution, 0.5 mcmol Gd-DTPA, three adjacent layers) | contrast enhancement left at the site of administration ([4]; one and a half hours after subcutaneous injection of Gd-DTPA solution) |
| --- | --- | --- | --- | --- | --- | --- | --- | --- | --- | --- | --- | --- | --- |
| Nc1nc(F)nc2c1ncn2[C@@H]1O[C@H](COP(=O)(O)O)[C@@H](O)[C@@H]1O [FLAMP, Fludarabin-5'-monophosphate] | 70% | 10% | 12% | About one week after injection | 70% | about the same as on day 1 after injecting the depot preparation | no longer detectable | disappear within a few hours | more than 90 | immediately absorbed |  |  |  |
| gadolinium-DPTA [Gd-DTPA] |  |  |  |  |  |  |  |  |  |  | only a faint diffuse contrast enhancement was detectable in three adjacent layers | about 212 mm | Almost no contrast enhancement was left |
